{"source": "ChEMBL document CHEMBL6153137", "about": "“Design, Synthesis, and Biological Evaluation of Novel Orally Available Covalent CDK12/13 Dual Inhibitors for the Treatment of Tumors” (J Med Chem, 2025)", "key": {"[1]": {"experiment": "Half life in Sprague-Dawley rat at 15 mg/kg, po measured for 24 hrs by LC-MS/MS analysis", "assay_type": "ADME, organism-based", "conditions": "in vivo"}, "HCT-116": {"test_system": "HCT-116", "experiment": "Antiproliferative activity against PARG KO human HCT-116 cells assessed as reduction in cell viability incubated for 7 days by CellTiter-Glo reagent based luminescence analysis", "assay_type": "functional", "conditions": "HCT-116, 168 h"}, "CDK7/Cyclin H/MNAT1": {"biological_target": "CDK7/Cyclin H/MNAT1 (Homo sapiens, UniProt P50613)", "experiment": "Inhibition of human recombinant N-terminal 6X His-tagged CDK7/CCNH/N-terminal 6X His-tagged MNAT1 expressed in HEP Sf9 cells using ATP as substrate measured after 60 mins by ADP-Glo reagent based luminescence assay"}, "[2]": {"experiment": "Cmax in Balb/c mouse xenografted with human MV4-11 cells at 15 mg/kg, po administered once daily via gavage", "assay_type": "ADME, organism-based", "conditions": "in vivo"}, "[3]": {"experiment": "Half life in Sprague-Dawley rat at 5 mg/kg, po measured for 24 hrs by LC-MS/MS analysis", "assay_type": "ADME, organism-based", "conditions": "in vivo"}, "[4]": {"experiment": "Half life in female Sprague-Dawley rat at 30 mg/kg, po administered once daily via gavage for 28 days", "assay_type": "ADME, organism-based", "conditions": "in vivo, time 28 day"}, "[5]": {"experiment": "GSH reactivity assessed as half life to adduct formation at 1 uM by LC-MS/MS analysis", "assay_type": "physicochemical"}, "SW1417": {"test_system": "SW1417", "experiment": "Antiproliferative activity against human SW1417 cells assessed as reduction in cell viability incubated for 7 days by CellTiter-Glo reagent based luminescence analysis", "assay_type": "functional", "conditions": "SW1417, 168 h"}, "[6]": {"experiment": "Toxicity against male Sprague-Dawley rat assessed as effect on mean corpuscular volume at 10 to 40 mg/kg, po administered once daily via gavage for 28 days and measured on day 29", "assay_type": "organism-based", "conditions": "in vivo, 696 h, dose 10-40 mg/kg, time 29 day"}, "[7]": {"experiment": "Toxicity against female Sprague-Dawley rat assessed as body weight loss at 30 mg/kg, po administered once daily via gavage for 28 days and measured twice a week", "assay_type": "organism-based", "conditions": "in vivo, 672 h, time 28 day"}, "[8]": {"experiment": "Toxicity against female Sprague-Dawley rat assessed as decrease in thymus volume at 7.5 to 30 mg/kg, po administered once daily via gavage for 28 days and measured on day 29", "assay_type": "organism-based", "conditions": "in vivo, 696 h, dose 7.5-30 mg/kg, time 29 day"}, "[9]": {"experiment": "Toxicity against female Sprague-Dawley rat assessed as effect on AST level in blood at 7.5 to 30 mg/kg, po administered once daily via gavage for 28 days and measured on day 29", "assay_type": "organism-based", "conditions": "in vivo, 696 h, dose 7.5-30 mg/kg, time 29 day"}, "[10]": {"experiment": "Half life in female Sprague-Dawley rat at 30 mg/kg, po administered via gavage and measured on day 1", "assay_type": "ADME, organism-based", "conditions": "in vivo, time 1 day"}, "[11]": {"biological_target": "CDK12/Cyclin K (Homo sapiens) (UniProt O75909+Q9NYV4)", "sequence (O75909 whole entry, looked up)": "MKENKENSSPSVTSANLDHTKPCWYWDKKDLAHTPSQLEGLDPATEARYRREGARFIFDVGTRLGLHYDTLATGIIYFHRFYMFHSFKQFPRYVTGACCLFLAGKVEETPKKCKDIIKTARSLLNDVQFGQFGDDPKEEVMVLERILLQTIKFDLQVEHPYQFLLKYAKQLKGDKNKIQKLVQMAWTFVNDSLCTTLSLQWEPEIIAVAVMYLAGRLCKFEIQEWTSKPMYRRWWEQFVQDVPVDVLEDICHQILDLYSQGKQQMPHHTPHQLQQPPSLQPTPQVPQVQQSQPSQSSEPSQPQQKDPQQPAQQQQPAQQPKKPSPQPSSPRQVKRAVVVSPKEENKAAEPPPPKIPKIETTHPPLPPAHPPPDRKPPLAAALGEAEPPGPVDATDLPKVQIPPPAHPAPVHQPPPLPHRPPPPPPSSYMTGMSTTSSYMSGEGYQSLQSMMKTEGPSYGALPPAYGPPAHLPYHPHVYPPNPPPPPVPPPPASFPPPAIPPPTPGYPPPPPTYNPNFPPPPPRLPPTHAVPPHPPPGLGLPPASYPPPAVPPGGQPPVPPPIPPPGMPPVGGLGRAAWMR", "sequence (Q9NYV4 whole entry, looked up)": "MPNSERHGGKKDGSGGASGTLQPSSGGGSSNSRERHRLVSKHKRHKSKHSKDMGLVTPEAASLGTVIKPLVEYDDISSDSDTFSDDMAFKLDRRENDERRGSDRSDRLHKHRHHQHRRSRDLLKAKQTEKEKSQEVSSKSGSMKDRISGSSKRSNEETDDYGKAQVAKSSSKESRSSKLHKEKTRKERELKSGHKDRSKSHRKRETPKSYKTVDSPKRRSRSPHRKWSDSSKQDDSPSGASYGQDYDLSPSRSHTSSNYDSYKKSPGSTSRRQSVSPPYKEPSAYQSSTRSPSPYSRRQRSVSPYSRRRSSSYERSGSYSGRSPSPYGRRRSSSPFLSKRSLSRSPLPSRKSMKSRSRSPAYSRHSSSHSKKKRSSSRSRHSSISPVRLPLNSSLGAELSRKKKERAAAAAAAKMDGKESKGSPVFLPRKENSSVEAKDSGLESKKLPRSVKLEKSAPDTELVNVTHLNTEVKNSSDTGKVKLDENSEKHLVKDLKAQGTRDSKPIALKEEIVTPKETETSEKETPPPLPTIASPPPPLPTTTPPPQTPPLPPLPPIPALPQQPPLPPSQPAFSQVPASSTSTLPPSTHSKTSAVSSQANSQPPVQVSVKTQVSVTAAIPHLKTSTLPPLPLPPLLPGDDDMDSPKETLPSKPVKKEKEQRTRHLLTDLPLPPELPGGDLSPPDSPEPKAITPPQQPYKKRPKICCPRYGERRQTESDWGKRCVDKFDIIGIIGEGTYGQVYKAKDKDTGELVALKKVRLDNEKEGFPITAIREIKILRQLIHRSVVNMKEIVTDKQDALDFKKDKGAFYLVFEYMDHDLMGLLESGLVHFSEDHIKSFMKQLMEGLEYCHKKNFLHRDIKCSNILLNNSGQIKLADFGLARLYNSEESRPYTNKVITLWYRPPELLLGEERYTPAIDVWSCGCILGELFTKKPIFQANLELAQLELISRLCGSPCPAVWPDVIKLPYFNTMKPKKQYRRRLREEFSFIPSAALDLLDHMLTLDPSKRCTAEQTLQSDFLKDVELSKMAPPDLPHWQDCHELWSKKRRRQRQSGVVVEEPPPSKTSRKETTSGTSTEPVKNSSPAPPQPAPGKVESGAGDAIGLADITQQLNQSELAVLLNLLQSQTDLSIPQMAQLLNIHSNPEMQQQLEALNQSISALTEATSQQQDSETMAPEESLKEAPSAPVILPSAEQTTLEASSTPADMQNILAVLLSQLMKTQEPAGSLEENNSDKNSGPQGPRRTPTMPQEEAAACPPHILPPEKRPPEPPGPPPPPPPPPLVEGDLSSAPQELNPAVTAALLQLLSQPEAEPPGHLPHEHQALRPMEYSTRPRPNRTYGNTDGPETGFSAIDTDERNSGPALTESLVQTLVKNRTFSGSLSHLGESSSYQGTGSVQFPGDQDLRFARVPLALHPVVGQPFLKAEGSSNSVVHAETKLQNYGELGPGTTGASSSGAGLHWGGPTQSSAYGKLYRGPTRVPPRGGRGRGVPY", "experiment": "Irreversible covalent binding affinity to CDK12/CyclinK (unknown origin) at Cys1039 residue assessed as 1:1 complex formation at 5 uM measured after 3 hrs by peptide mapping based mass spectrometric analysis", "assay_type": "protein-complex assay"}, "[12]": {"experiment": "Half life in Sprague-Dawley rat at 150 mg/kg, po measured for 24 hrs by LC-MS/MS analysis", "assay_type": "ADME, organism-based", "conditions": "in vivo"}, "[13]": {"experiment": "Cmax in Sprague-Dawley rat at 5 mg/kg, po measured for 24 hrs by LC-MS/MS analysis", "assay_type": "ADME, organism-based", "conditions": "in vivo"}, "[14]": {"experiment": "Cmax in female Sprague-Dawley rat at 7.5 mg/kg, po administered once daily via gavage for 28 days", "assay_type": "ADME, organism-based", "conditions": "in vivo, time 28 day"}, "[15]": {"biological_target": "Cyclin-dependent kinase 5/CDK5 activator 1 (Homo sapiens) (UniProt Q00535+Q15078)", "sequence (Q00535 whole entry)": "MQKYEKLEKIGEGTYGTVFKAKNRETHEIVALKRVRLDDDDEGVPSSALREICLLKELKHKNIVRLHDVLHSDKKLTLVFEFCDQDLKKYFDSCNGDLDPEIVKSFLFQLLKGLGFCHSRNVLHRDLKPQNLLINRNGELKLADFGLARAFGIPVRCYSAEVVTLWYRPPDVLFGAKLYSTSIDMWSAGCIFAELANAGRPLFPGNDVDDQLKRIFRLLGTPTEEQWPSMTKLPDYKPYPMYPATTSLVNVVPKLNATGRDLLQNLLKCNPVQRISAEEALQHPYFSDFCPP", "sequence (Q15078 99-307 partner limits assumed)": "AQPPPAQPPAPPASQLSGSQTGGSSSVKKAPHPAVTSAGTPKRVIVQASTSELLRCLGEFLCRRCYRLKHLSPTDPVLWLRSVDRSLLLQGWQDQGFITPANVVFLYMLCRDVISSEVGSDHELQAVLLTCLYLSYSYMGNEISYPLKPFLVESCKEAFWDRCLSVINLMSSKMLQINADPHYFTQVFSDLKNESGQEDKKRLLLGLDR", "experiment": "Inhibition of human recombinant N-terminal GST-tagged CDK5/N-terminal GST-tagged p35NCK expressed in HEP Sf9 cells using ATP as substrate at 2 uM measured after 60 mins by ADP-Glo reagent based luminescence analysis"}, "[16]": {"experiment": "Toxicity against female Sprague-Dawley rat assessed as effect on red blood cells level at 7.5 to 30 mg/kg, po administered once daily via gavage for 28 days and measured on day 29", "assay_type": "organism-based", "conditions": "in vivo, 696 h, dose 7.5-30 mg/kg, time 29 day"}, "[17]": {"biological_target": "Cyclin-dependent kinase 13/Cyclin-K (Homo sapiens, UniProt Q14004)", "sequence (Q14004 whole entry)": "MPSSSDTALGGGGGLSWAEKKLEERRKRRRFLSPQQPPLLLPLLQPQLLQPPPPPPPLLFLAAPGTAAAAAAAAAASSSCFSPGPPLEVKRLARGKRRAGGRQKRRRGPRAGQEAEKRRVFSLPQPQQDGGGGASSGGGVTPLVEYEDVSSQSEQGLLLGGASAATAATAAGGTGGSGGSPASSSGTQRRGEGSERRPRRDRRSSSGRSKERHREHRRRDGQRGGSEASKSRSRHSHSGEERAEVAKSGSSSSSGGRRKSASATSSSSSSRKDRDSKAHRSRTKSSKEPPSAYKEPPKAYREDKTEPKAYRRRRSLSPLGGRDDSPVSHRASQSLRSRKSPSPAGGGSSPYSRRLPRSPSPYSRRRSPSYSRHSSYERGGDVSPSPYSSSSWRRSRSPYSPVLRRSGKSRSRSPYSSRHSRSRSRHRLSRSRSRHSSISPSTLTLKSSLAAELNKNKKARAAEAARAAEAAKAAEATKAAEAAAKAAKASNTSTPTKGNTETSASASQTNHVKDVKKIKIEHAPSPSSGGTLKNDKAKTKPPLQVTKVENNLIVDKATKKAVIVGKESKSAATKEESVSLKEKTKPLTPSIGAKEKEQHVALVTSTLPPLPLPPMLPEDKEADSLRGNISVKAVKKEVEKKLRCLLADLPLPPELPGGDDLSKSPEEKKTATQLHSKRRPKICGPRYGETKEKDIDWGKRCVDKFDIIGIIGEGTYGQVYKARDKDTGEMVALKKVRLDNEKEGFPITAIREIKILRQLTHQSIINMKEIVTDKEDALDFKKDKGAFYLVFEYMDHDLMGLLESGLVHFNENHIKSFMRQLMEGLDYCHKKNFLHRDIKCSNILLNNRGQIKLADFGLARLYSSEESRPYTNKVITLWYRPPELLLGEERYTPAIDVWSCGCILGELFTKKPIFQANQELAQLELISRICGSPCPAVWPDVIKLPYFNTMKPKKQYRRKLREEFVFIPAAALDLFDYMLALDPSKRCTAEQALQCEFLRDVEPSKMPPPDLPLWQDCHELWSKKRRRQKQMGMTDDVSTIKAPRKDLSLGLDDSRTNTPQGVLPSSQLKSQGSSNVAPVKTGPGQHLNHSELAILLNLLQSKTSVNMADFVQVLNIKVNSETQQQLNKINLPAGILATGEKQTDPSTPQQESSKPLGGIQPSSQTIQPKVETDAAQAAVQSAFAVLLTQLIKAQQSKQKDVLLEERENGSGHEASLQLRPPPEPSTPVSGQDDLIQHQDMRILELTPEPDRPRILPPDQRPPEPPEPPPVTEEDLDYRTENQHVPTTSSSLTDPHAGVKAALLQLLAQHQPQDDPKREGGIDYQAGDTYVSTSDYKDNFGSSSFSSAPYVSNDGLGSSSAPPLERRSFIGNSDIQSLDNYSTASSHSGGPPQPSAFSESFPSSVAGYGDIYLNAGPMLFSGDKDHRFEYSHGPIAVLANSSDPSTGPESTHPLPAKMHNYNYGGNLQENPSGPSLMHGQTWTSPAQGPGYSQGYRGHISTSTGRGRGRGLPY", "sequence (O75909 whole entry, further chain)": "as the sequence (O75909 whole entry, looked up) above", "experiment": "Inhibition of CDK13/Cyclin K (unknown origin) using pS7-CTD peptide and ATP as substrate incubated for 120 mins by ADP-Glo reagent based luminescence analysis", "assay_type": "protein-complex assay"}, "[18]": {"biological_target": "CDK7/Cyclin H/MNAT1 (Homo sapiens) (UniProt P51946+P50613+P51948)", "experiment": "Inhibition of human recombinant N-terminal 6X His-tagged CDK7/CCNH/N-terminal 6X His-tagged MNAT1 expressed in HEP Sf9 cells using ATP as substrate at 2 uM measured after 60 mins by ADP-Glo reagent based luminescence assay"}, "[19]": {"experiment": "Toxicity against female Sprague-Dawley rat assessed as effect on chlorine level in blood at 7.5 to 30 mg/kg, po administered once daily via gavage for 28 days and measured on day 29", "assay_type": "organism-based", "conditions": "in vivo, 696 h, dose 7.5-30 mg/kg, time 29 day"}, "[20]": {"biological_target": "Voltage-gated inwardly rectifying potassium channel KCNH2 (Homo sapiens, UniProt Q12809)", "experiment": "Inhibition of hERG expressed in CHO cells assessed as inhibition of channel current measured at holding potential of -80 mV by whole cell patch clamp analysis", "assay_type": "toxicity, cell-based"}, "[21]": {"experiment": "AUC(0 to t) in male Sprague-Dawley rat at 40 mg/kg, po administered via gavage and measured on day 1", "assay_type": "ADME, organism-based", "conditions": "in vivo, 24 h, time 1 day"}, "[22]": {"biological_target": "CDK18/Cyclin Y (Homo sapiens) (UniProt Q07002+Q8ND76)", "experiment": "Inhibition of human recombinant N-terminal GST-tagged CDK18/N-terminal GST-tagged Cyclin Y expressed in HEP Sf9 cells using ATP as substrate at 2 uM measured after 60 mins by ADP-Glo reagent based luminescence assay"}, "[23]": {"experiment": "AUC(0 to t) in female Sprague-Dawley rat at 7.5 mg/kg, po administered once daily via gavage for 28 days", "assay_type": "ADME, organism-based", "conditions": "in vivo, 672 h, time 28 day"}, "[24]": {"experiment": "AUC (0 to infinity) in Sprague-Dawley rat at 150 mg/kg, po by LC-MS/MS analysis", "assay_type": "ADME, organism-based", "conditions": "in vivo"}, "[25]": {"experiment": "Cmax in male Sprague-Dawley rat at 40 mg/kg, po administered once daily via gavage for 28 days", "assay_type": "ADME, organism-based", "conditions": "in vivo, time 28 day"}, "[26]": {"experiment": "AUC(0 to t) in female Sprague-Dawley rat at 30 mg/kg, po administered once daily via gavage for 28 days", "assay_type": "ADME, organism-based", "conditions": "in vivo, 672 h, time 28 day"}, "[27]": {"experiment": "AUC(0 to t) in male Sprague-Dawley rat at 20 mg/kg, po administered via gavage and measured on day 1", "assay_type": "ADME, organism-based", "conditions": "in vivo, 24 h, time 1 day"}, "[28]": {"experiment": "Toxicity against male Sprague-Dawley rat assessed as effect on hematocrit level at 10 to 40 mg/kg, po administered once daily via gavage for 28 days and measured on day 29", "assay_type": "organism-based", "conditions": "in vivo, 696 h, dose 10-40 mg/kg, time 29 day"}, "[29]": {"experiment": "AUC(0 to t) in male Sprague-Dawley rat at 40 mg/kg, po administered once daily via gavage for 28 days", "assay_type": "ADME, organism-based", "conditions": "in vivo, 672 h, time 28 day"}, "[30]": {"biological_target": "Mitogen-activated protein kinase 10 (Homo sapiens) (UniProt P53779)", "sequence (P53779 whole entry)": "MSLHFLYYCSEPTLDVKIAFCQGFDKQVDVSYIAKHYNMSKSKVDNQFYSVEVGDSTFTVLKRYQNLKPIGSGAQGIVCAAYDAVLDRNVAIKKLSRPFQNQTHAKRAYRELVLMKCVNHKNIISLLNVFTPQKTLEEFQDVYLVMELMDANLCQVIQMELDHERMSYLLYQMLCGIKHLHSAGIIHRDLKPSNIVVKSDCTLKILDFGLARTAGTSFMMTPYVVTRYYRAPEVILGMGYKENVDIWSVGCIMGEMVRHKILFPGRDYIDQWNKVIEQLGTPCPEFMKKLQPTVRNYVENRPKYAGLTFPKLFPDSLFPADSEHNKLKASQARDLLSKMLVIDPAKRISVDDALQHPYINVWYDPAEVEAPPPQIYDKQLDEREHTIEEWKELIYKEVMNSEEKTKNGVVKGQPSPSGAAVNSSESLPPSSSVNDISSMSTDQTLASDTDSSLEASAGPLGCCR", "experiment": "Inhibition of JNK3 (unknown origin) at 5 uM by DiscoverX KinomeScan ScanMAX analysis"}, "[31]": {"experiment": "Cmax in Balb/c mouse xenografted with human MV4-11 cells at 30 mg/kg, po administered once daily via gavage", "assay_type": "ADME, organism-based", "conditions": "in vivo"}, "[32]": {"experiment": "Cmax in female Sprague-Dawley rat at 7.5 mg/kg, po administered via gavage and measured on day 1", "assay_type": "ADME, organism-based", "conditions": "in vivo, time 1 day"}, "[33]": {"experiment": "Kinetic solubility of the compound in phosphate buffer at pH 7.4 measured after 24 hrs by HPLC-UV analysis", "assay_type": "physicochemical", "conditions": "read-out: Kinetic_solubility"}}, "note": "The source made the active and inactive calls. The calls are words filed in the database; no cut-off is given here.", "data": [{"smiles": "C=CC(=O)N1CCc2c(ncnc2N2CC[C@@H](Nc3ncc(Cl)c(OC)n3)C2)C1", "values": [{"measurement": "half-life", "setting": "[1]", "result": 109, "unit": "min"}, {"measurement": "IC50", "setting": "HCT-116", "result": 123, "unit": "nM"}, {"measurement": "IC50", "setting": "CDK7/Cyclin H/MNAT1", "result": 204, "unit": "nM"}, {"measurement": "Cmax", "setting": "[2]", "result": 647, "unit": "ng/mL"}, {"measurement": "half-life", "setting": "[3]", "result": 48, "unit": "min"}, {"measurement": "half-life", "setting": "[4]", "result": 270, "unit": "min"}, {"measurement": "t1/2", "setting": "[5]", "result": 81.2, "unit": "min"}, {"measurement": "IC50", "setting": "SW1417", "result": 137, "unit": "nM"}, {"measurement": "Activity", "setting": "[6]", "result": "Non-toxic"}, {"measurement": "Activity", "setting": "[7]", "result": "Toxic"}, {"measurement": "Activity", "setting": "[8]", "result": "Toxic"}, {"measurement": "Activity", "setting": "[9]", "result": "Non-toxic"}, {"measurement": "half-life", "setting": "[10]", "result": 240, "unit": "min"}, {"measurement": "Activity", "setting": "[11]", "result": "Active"}, {"measurement": "half-life", "setting": "[12]", "result": 1270, "unit": "min"}, {"measurement": "Cmax", "setting": "[13]", "result": 808, "unit": "ng/mL"}, {"measurement": "Cmax", "setting": "[14]", "result": 800, "unit": "ng/mL"}, {"measurement": "inhibition", "setting": "[15]", "result": 62, "unit": "%"}, {"measurement": "Activity", "setting": "[16]", "result": "Non-toxic"}, {"measurement": "IC50", "setting": "[17]", "result": 79.4, "unit": "nM"}, {"measurement": "inhibition", "setting": "[18]", "result": 94, "unit": "%"}, {"measurement": "Activity", "setting": "[19]", "result": "Non-toxic"}, {"measurement": "IC50", "setting": "[20]", "result": "> 30", "unit": "µM"}, {"measurement": "AUCt", "setting": "[21]", "result": 7120, "unit": "ng·h/mL"}, {"measurement": "inhibition", "setting": "[22]", "result": 68, "unit": "%"}, {"measurement": "AUCt", "setting": "[23]", "result": 1760, "unit": "ng·h/mL"}, {"measurement": "AUC(0-inf)", "setting": "[24]", "result": 31200, "unit": "ng·h/mL"}, {"measurement": "Cmax", "setting": "[25]", "result": 2410, "unit": "ng/mL"}, {"measurement": "AUCt", "setting": "[26]", "result": 7860, "unit": "ng·h/mL"}, {"measurement": "AUCt", "setting": "[27]", "result": 2550, "unit": "ng·h/mL"}, {"measurement": "Activity", "setting": "[28]", "result": "Non-toxic"}, {"measurement": "AUCt", "setting": "[29]", "result": 6070, "unit": "ng·h/mL"}, {"measurement": "inhibition", "setting": "[30]", "result": "Active"}, {"measurement": "Cmax", "setting": "[31]", "result": 1350, "unit": "ng/mL"}, {"measurement": "Cmax", "setting": "[32]", "result": 870, "unit": "ng/mL"}, {"measurement": "solubility kinetic at 24 h", "setting": "[33]", "result": 59.4, "unit": "µg/mL"}]}]}
